Test results from patent US20230364419A1, “USE OF E[…] ENHANCE THE DELIVERY OF PHARMACEUTICAL AGENTS AND OTHER […] THE SURFACE MUCOSA AND WALL OF THE URETER AND RENAL PELVIS, AND INTO THE RENAL PARENCHYMA” (priority 2022, published 2023).
Entries after “also recorded” stand apart in the source; their conditions may differ.

What was measured:
[1] = Methylene blue infusion into the renal pelvis with or without EMDA activation; type: in vivo
Method: In another example, cystoscopy was used to place a 0.035 in. guidewire into the ureter and pass it up into the renal pelvis. The cystoscope is removed and a 5 to 15 Fr pigtail catheter is advanced over the guidewire; the guidewire is removed. A retrograde pyelogram is performed and the fluid is then drained from the renal pelvis and measured in order to obtain the volume of the renal pelvis. The guidewire is replaced and the pigtail catheter is removed and the EMDA delivery catheter is advanced over the guidewire into the ureter. A fluoroscopic image is obtained to confirm the correct position of the catheter with the proximal tip inside the renal pelvis. The guidewire is removed and the catheter assumes its nonintubated “C” shape along its proximal end; the silver wire is passed into the EMDA catheter (alternatively a pre-assembled catheter will be deployed via a preplaced ureteral access sheath) following the “C” shape of the distal end of the catheter.
For renal pelvis EMDA, an electrical current of 4 mA (using a dedicated EMDA generator) is used in the C-shape catheter to achieve a current density of less than 0.5 mA/cm^2. This value is obtained based on prior work in the bladder with regard to the safety and efficacy of EMDA; the collecting system surface (8 cm^2) was multiplied by 0.5 mA/cm^2. A pulsed current is used during EMDA; however, direct current is also applicable.

[2] = Porcine ureteral EMDA proof-of-concept study: methylene blue infused through the ureteral catheter with or without current; type: in vivo, Yorkshire pigs; settings: for microscopic penetration of methylene blue into the ureteral wall (frozen section / histopathology): 20 min, infusion 5 ml/min
Text: Cystoscopy is used to place a 0.035 in. guidewire into the ureter and up into the renal pelvis. The cystoscope is removed and the EMDA delivery catheter is advanced over the 0.035-inch super-stiff guidewire into the ureter up to the level of the ureteropelvic junction (i.e., not into the renal pelvis). A fluoroscopic image is obtained to confirm the correct position of the catheter in the ureter with the proximal tip just inside the renal pelvis. The 0.035 in. guidewire is removed and the silver wire is passed into the EMDA catheter. The circumference of the tip of silver wire (connected to positive electrode of EMDA generator) is larger than the exit hole in the distal tip of the EMDA catheter and thus its passage stops at the catheter’s tip and occludes the end-hole, thereby preventing any flow of instilled fluid from the tip of the catheter. A dispersing electrode (negative) is placed on the flank area. The EMDA is then activated and the fluid containing the intended medication is instilled at 5 ml/min via a drug infusion pump for 20 minutes.
An electrical current of 10 mA is used to achieve a current density of less than 0.5 mA/cm^2. This value was obtained based on prior work in other areas with regard to the safety and efficacy of EMDA. The ureteral surface was multiplied [20 cm (length)×(circumference≈1 cm) ≈20 cm^2] by 0.5 mA/cm^2. A pulsed or direct current can be used during EMDA.
As proof of concept, a porcine study was performed (IACUC approved protocol: 21-131). A charged molecule, methylene blue, was instilled which is suitable for EMDA because of its net positive charge, small molecular size, and strong blue color. Via the EMDA catheter, a pulsed electrical current of 10 mA was applied for 20 minutes during instillation of the methylene blue solution The pigs were then euthanized and both ureters were harvested. Visually, the difference in the color density in the experimental (EMDA ureter) and control ureter (without EMDA) was apparent.
Two Yorkshire pigs were placed under general anesthesia. Cystoscopy was used to place a 0.035 in. super-stiff™ guidewire into each ureter. A prefabricated ureteral catheter with equidistant (5 mm) fenestrations in three rows was advanced into each ureter. A silver wire was then passed into each ureteral catheter; the circumference of the silver wire was larger than the terminal opening in the catheter such that its passage stopped at the catheter’s tip, thereby preventing any flow of instilled fluid from the tip of the catheter. Methylene blue, a heterocyclic aromatic dye with a net positive charge, was infused through each catheter at a rate of 5 ml/min. In the experimental ureter, a positive pulsed electrical current of 10 mA was applied using a Physionizer® EDMA device. […]

macroscopic staining of the renal pelvis ([1]; with EMDA activation): Intense staining of the renal pelvis
macroscopic staining of the renal pelvis ([1]; without EMDA activation): Faint staining of the renal pelvis
Structure (SMILES): CN(C)c1ccc2nc3ccc(=[N+](C)C)cc-3sc2c1 [methylene blue]
microscopic staining of urothelium and submucosa of the renal pelvis ([1]; with EMDA activation): Deep blue staining of urothelium and the submucosa of the renal pelvis
tissue injury of the renal pelvis (H&E staining) ([1]; with EMDA activation): normal architecture with no signs of acute injury
microscopic staining of urothelium and submucosa of the renal pelvis ([1]; without EMDA activation): Blue staining of urothelium with less intensity and negligible methylene blue staining the submucosa of the renal pelvis
tissue injury of the renal pelvis (H&E staining) ([1]; without EMDA activation): normal architecture with no evidence of injury
microscopic penetration of methylene blue into the ureteral wall (frozen section / histopathology) ([2]; control ureter, without EMDA): only patchy staining of the urothelium; also recorded: minimal, patchy staining of the urothelial lining with negligible penetration of methylene blue beyond the urothelium; also recorded: patchy methylene blue staining was seen only on the urothelium with negligible deeper penetration
microscopic penetration of methylene blue into the ureteral wall (frozen section / histopathology) ([2]; experimental ureter, with EMDA, pulsed current 10 mA): could be delivered beyond the urothelium and deeply into the wall of the ureter; also recorded: dense blue staining of the urothelium; also recorded: penetration of methylene blue throughout the wall of the EMDA treated ureter; also recorded: diffuse penetration of methylene blue into the urothelium, lamina propria, muscularis propria, and periureteral tissue
macroscopic staining of the interior surface of the ureter ([2]; with EMDA): intense staining of the experimental ureter
macroscopic staining of the interior surface of the ureter ([2]; without EMDA): minimal staining of the urothelial lining
